Laboratory results: patent US9238807B2, “Peptide increasing fusiogenic capacity of a gamete” (UNIVERSITE PARIS 13, priority 2003, dated 2016)
Positions of bridges follow the written chain, without caps; N, C: chain ends. Residues, ends and D or L forms follow the SMILES beside them. No end group written: not given here.

What was measured:
[1] = test system: human zona-free oocytes and spermatozoa; assay type: cell-based
Experimental: (§1) Patients donated said oocytes for research purposes and signed a consent form approved by the Institutional Review Board of the Aulnay-sous-Bois hospital.
These oocytes aged 48 hours or matured in vitro were not or were no longer capable of producing an embryo. Moreover, the polyspermy blocking mechanism which ensures that the embryo will be diploid is located in the zona pellucida of the oocyte. By removing the zona pellucida of these oocytes, this protective mechanism is abolished, leading to nonviable polyspermic zygotes in the event of gamete fusion. Finally, as embryo development occurs inside the zona pellucida for the first six days, the absence of the latter precludes said development from taking place.
(§2) To maintain the oocyte membrane as close as possible to its natural state, the inventors removed the zona pellucida mechanically with microsurgical scissors.
Sperm from fertile donors was collected after three days of abstinence and prepared as for IVF. […]
Functional tests of inhibition of fusion were carried out in conditions similar to those used for IVF, that is, in conditions sufficiently close to physiological conditions since they enable pregnancy and fetuses. […] The slides were analyzed under a Zeiss Axiophot microscope equipped with a camera connected to Imaging System Package image analysis software (Applied Imaging, Newcastle-upon-Tyne, UK). […]

[2] = test system: human oocyte membrane; test: Detection of biotinylated FEEc peptide at the surface of human oocytes (immunofluorescence, confocal microscopy); assay type: binding; conditions: 200 μM biotinylated peptide, 45 minutes, FIG. 1
Experimental: as §1, §2
The oocytes were incubated with 200 μM biotinylated FEEc peptide for 45 minutes.
The zona pellucida was mechanically removed from the oocytes which were then incubated for 45 minutes with […] biotinylated peptide. The FEEc peptide was detected with a mouse anti-biotin antibody recognized by a biotinylated anti-mouse immunoglobulin antibody then by streptavidin-FITC. The oocytes were then mounted in immunomount between the coverslip and the slide and examined under a confocal microscope, B: superimposition of sections corresponding to a hemi-oocyte.

Compound	toxic effect on oocytes [1]	labelling of the oocyte membrane with the peptide [2]
N[C@H]1CSSC[C@@H](C(=O)O)NC(=O)[C@H](CCC(=O)O)NC(=O)[C@H](CCC(=O)O)NC(=O)[C@H](Cc2ccccc2)NC(=O)[C@H](CO)NC1=O [FEEc, CSFEEC] (H-CSFEEC-OH; disulfide 1-6)	no toxic effect on oocytes	
biotinylated FEEc: FEEc cyclic peptide labelled with biotin for detection on oocytes (CSFEEC; disulfide 1-6 (inferred); also: biotinylated (position not given here))		labelling of the membrane
